The numbers were not newly measured in US20030144252A1, “Combination product comprising a non-steroidal antiandrogen and an egfr tyrosine kinase inhibitor” (priority 2000, published 2003), which cites them from elsewhere.

The test system of series [1] is LNCaP prostate cancer cell line.
Series [2] has as its system androgen receptor. Particulars: LNCaP prostate cancer cell line.

The structures appear in SMILES notation.

In the case of `CC(O)(CS(=O)(=O)c1ccc(F)cc1)C(=O)Nc1ccc(C#N)c(C(F)(F)F)c1` (centres unmarked) [bicalutamide, 4′-cyano-3-(4-fluorophenylsulphonyl)-2-hydroxy-2-methyl-3′-(trifluoromethyl)propionanilide], the “block of EGF induced cell growth” value in series [1] is “could partially block”.
In the case of `CC(C)(O)C(=O)Nc1ccc([N+](=O)[O-])c(C(F)(F)F)c1` [hydroxyflutamide], in series [2], the “block of HER2/neu protein induced activation of the androgen receptor” value was “could partially block”.
